The source of these data is PMC3400123 (Bioorganic & medicinal chemistry, 2012).

One data set deals with human P-gp-His10 (Homo sapiens, UniProt P08183). Kind of data set: Stimulation of ATPase activity of isolated human P-gp-His10. The note with it: read-out: KM (concentration of compound required to achieve 50% maximal stimulation); isolated human P-gp-His10 in sheep brain phosphatidylethanolamine.
The test system of a further data set is MDCKII-MDR1 cells. The data set can be described thus: Transport and cell association across MDCKII-MDR1 monolayers. The data set is classed as in vitro ADME. The note with it: for PAB (+ inh): absorptive direction; for PAB (+ inh) / PBA (+ inh): with 5 × 10^−6 M LSN 335984, 5 × 10^−6 M dye, BSA; for PBA / PBA (+ inh): secretory direction; for PBA: no inhibitor, 5 × 10^−6 M dye, 4.3 mg mL^−1 BSA; for Ratio (+/− inh) for % cell associated dye: inhibited / uninhibited pump.

A value given as a limit tells only on which side of the number the result lay.

Chain of human P-gp-His10 (P08183 whole entry): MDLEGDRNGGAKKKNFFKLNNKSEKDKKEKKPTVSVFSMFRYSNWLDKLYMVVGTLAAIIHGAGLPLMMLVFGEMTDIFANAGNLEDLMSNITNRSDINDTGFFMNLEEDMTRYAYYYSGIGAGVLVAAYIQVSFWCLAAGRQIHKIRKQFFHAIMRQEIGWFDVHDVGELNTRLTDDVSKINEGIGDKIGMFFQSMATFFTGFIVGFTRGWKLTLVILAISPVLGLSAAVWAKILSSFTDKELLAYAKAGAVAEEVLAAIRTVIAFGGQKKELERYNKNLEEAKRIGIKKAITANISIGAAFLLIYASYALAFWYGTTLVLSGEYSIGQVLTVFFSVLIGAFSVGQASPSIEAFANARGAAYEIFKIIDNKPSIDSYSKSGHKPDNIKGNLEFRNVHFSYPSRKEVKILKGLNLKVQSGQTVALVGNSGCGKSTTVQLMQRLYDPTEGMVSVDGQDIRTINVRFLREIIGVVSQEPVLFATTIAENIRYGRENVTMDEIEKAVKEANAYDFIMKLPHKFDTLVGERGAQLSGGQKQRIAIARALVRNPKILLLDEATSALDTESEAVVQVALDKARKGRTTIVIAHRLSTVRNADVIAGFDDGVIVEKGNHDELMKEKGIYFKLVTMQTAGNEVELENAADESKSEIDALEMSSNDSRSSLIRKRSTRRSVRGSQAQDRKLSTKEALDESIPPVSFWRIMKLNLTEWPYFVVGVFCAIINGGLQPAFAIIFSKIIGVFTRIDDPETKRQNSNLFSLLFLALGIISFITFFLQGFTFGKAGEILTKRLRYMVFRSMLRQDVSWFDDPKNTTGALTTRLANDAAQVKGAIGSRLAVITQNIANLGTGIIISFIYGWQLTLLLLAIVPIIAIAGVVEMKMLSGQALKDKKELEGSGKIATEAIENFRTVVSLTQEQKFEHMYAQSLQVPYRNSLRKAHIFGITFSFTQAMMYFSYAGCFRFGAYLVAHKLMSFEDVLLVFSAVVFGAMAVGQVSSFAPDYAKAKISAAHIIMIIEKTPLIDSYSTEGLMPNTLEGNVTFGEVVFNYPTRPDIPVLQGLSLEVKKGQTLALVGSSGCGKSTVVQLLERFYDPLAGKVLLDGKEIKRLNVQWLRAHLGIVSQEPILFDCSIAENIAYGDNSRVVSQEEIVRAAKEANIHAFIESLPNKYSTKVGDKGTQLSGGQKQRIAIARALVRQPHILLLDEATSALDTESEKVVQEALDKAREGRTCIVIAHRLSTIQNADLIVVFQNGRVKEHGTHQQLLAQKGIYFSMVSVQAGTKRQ

For `CCN(CC)C(=O)c1ccc(-c2c3ccc(N(C)C)cc3[s+]c3cc(N(C)C)ccc23)s1` [Compound 1, 3,6-bis(dimethylamino)-9-(5-(diethylcarbamoyl)thiophen-2-yl)thioxan-thylium hexafluorophosphate], the Km on human P-gp-His10 was found to be 5.7 ± 1 µM.

In the case of `CCN(CC)C(=S)c1ccc(-c2c3ccc(N(C)C)cc3[s+]c3cc(N(C)C)ccc23)s1.F[P-](F)(F)(F)(F)F` [Compound 2, 3,6-bis(dimethylamino)-9-(5-(diethylcarbamothioyl)thiophen-2-yl)thioxanthylium hexafluorophosphate], the Km at human P-gp-His10 was determined as 5.8 ± 0.6 µM. Further, in the data set with MDCKII-MDR1 cells, the “PAB (+ inh)” value is recorded as ≤ 1 ≤ 1 10^−9 m s^−1 and the PBA is listed as 210 ± 17 10^−9 m s^−1.

Consider `CCN(CC)C(=O)c1ccc(-c2c3ccc(N(C)C)cc3[s+]c3c4c5c(cc23)CCCN5CCC4)s1.F[P-](F)(F)(F)(F)F` [Compound 5, 12-(dimethylamino)-2,3,6,7-tetrahydro-9-(5-(diethylcarbamoyl)thiophen-2-yl)-1H,5H-thioxantheno[2,3,4-ij]quinolizin-14-ium hexafluorophosphate], for which the Km on human P-gp-His10 was determined as 3.6 ± 0.4 µM. Besides, in the data set on MDCKII-MDR1 cells, the “PAB (+ inh)” value is listed as ≤ 1 ≤ 1 10^−9 m s^−1, the “Ratio (+/− inh) for % cell associated dye” value is given as 3.3-6.1, the PBA was 210 ± 22 10^−9 m s^−1 and the “PBA (+ inh)” value is reported as 17.0 ± 0.4 10^−9 m s^−1.

Consider `CCN(CC)C(=S)c1ccc(-c2c3ccc(N(C)C)cc3[s+]c3c4c5c(cc23)CCCN5CCC4)s1.F[P-](F)(F)(F)(F)F` [Compound 6, 12-(Dimethylamino)-2,3,6,7-tetrahydro-9-(5-(diethylcarbamothioyl)-thiophen-2-yl)-1H,5H-thioxantheno[2,3,4-ij]quinolizin-14-ium hexafluorophosphate], for which, on human P-gp-His10, the Km was determined as 2.3 ± 0.4 µM. In the data set with MDCKII-MDR1 cells, the “PAB (+ inh)” value is ≤ 1 ≤ 1 10^−9 m s^−1, the “Ratio (+/− inh) for % cell associated dye” value is on record as 1.2-2.1, the PBA is 65.0 ± 1.5 10^−9 m s^−1 and the “PBA (+ inh)” value is reported as 2.7 ± 0.1 10^−9 m s^−1.

`CN(C)c1ccc2c(-c3ccc(C(=O)N4CCCCC4)s3)c3cc4c5c(c3[s+]c2c1)CCCN5CCC4.F[P-](F)(F)(F)(F)F` [Compound 7, 12-(dimethylamino)-2,3,6,7-tetrahydro-9-(N-piperidyl-2-thienyl-5-carboxamido)-1H,5H-thioxantheno[2,3,4-ij]quinolizin-14-ium hexafluorophosphate]: the Km at human P-gp-His10 was 1.9 ± 0.4 µM. In the data set with MDCKII-MDR1 cells, the “PAB (+ inh)” value was ≤ 1 ≤ 1 10^−9 m s^−1, the “Ratio (+/− inh) for % cell associated dye” value is on record as 3.3-6.1, the PBA is 220 ± 29 10^−9 m s^−1 and the “PBA (+ inh)” value was 8.1 ± 0.1 10^−9 m s^−1.

Regarding `CCN(CC)C(=O)c1ccc(-[c+]2c3ccc(N(C)C)cc3sc3cc4c(cc32)C(C)(C)CCN4C)s1.F[P-](F)(F)(F)(F)F` [Compound 9, 6-(5-(diethylcarbamoyl)thiophen-2-yl)-9-(dimethylamino)-1,4,4-trimethyl-2,3,4,6-tetrahydro-1H-thiochromeno[3,2-g]quinolin-6-ylium hexafluorophosphate], the Km at human P-gp-His10 was 2.2 ± 1 µM. Besides, in the data set on MDCKII-MDR1 cells, the “PAB (+ inh)” value is ≤ 1 ≤ 1 10^−9 m s^−1, the “Ratio (+/− inh) for % cell associated dye” value was 3.3-6.1, the PBA is on record as 370 ± 17 10^−9 m s^−1 and the “PBA (+ inh)” value was 27.0 ± 0.3 10^−9 m s^−1.

As to `CCN(CC)C(=S)c1ccc(-[c+]2c3ccc(N(C)C)cc3sc3cc4c(cc32)C(C)(C)CCN4C)s1.F[P-](F)(F)(F)(F)F` [Compound 10, 6-(5-(diethylcarbamothioyl)thiophen-2-yl)-9-(dimethylamino)-1,4,4-trimethyl-2,3,4,6-tetrahydro-1H-thiochromeno[3,2-g]quinolin-6-ylium hexafluorophosphate], the Km at human P-gp-His10 is 3.1 ± 0.7 µM. In addition, in the data set on MDCKII-MDR1 cells, the “PAB (+ inh)” value is recorded as ≤ 1 ≤ 1 10^−9 m s^−1, the “Ratio (+/− inh) for % cell associated dye” value was 1.2-2.1 and the “PBA (+ inh)” value is 1.0 ± 0.1 10^−9 m s^−1.
